Values quoted from earlier work in patent US9126163B2, “Nanoemulsions and processes for their preparation, and their use as formulations of plant protection agents and/or pesticides and/or cosmetic preparations” (Evonik Degussa GmbH, priority 2008, dated 2015).
Converted amounts (≈) assume the structure as drawn.

| Compound | solubility in water |
| --- | --- |
| COC(=O)Nc1nc2ccccc2[nH]1 [carbendazim] | 29 mg/L (≈ 152 µM) |
| CO/C=C(/C(=O)OC)c1ccccc1Oc1cc(Oc2ccccc2C#N)ncn1 [azoxystrobin] | 6 mg/L (≈ 14.9 µM) |
| Cc1c(COC(=O)[C@@H]2[C@H](/C=C(\Cl)C(F)(F)F)C2(C)C)cccc1-c1ccccc1 (racemic) [bifenthrin] | < 0.001 mg/L |
| CC1(C)C(C=C(Cl)Cl)C1C(=O)OCc1cccc(Oc2ccccc2)c1 (stereo not shown) [permethrin] | 0.006 mg/L (≈ 0.0153 µM) |
| Fc1ccc([C@]2(Cn3cncn3)O[C@H]2c2ccccc2Cl)cc1 (racemic) [epoxyconazole] | 6.63*10^−4 g/100 ml |
| COc1cc(OC)nc(NC(=O)NS(=O)(=O)c2ncccc2C(=O)N(C)C)n1 [nicosulfuron] | 70 mg/L (≈ 171 µM) |
| mancozeb | 6.2 ppm |
| O=C(Nc1ccc([N+](=O)[O-])cc1Cl)c1cc(Cl)ccc1O [niclosamide] | 100 mg/L (≈ 306 µM) |
| CCCCCCCCCCCCCN1CC(C)OC(C)C1 (stereo not shown) [tridemorph] | 1.1 mg/L (≈ 3.7 µM) |
| abamectin | 0.007 to 0.01 mg/L |
